According to patent publication US10525044B2, “Treatment for chemotherapy-induced peripheral neuropathy” (priority 2013, dated 2020):
Entries after “also recorded” stand apart in the source; their conditions may differ.

Assays:
[1] = tested on: human lung cancer cell line H460; assay: Cell density of H460 cells (phase contrast); assay type: cell-based; settings: each agent alone, 3 days: MTX 100 μM, 5-FU 25 μM, CDDP 3.5 μM, PAN-811 10 μM
Method: (§1) Cancer Cell Culture. The mouse liver cancer cell line BNLT3 (gift of Dr. Jack Wands, Brown University) and the human lung cancer cell line H460 (ATCC) were seeded into 96-well plates at a density of 4,000 cells/well and cultured at 37° C., 5% CO2, in DMEM (11965, Gibco) supplemented with 10% fetal bovine serum, 20 mM HEPES, 1 mM sodium pyruvate, and […] gentamycin (all reagents came from Gibco).
(§2) Cell Insults and Treatments. Determination of concentration for each anticancer drug in our experiments was based on its reported concentration in human cerebral spinal fluid (CSF) in chemotherapy, literature report of its neurotoxicity in culture, and our preliminary in vitro experimental data. At 13 d.i.v., the neuronal cell cultures were insulted with 100 μM of MTX (M9929, Sigma), 25 μM of 5-FU (F6627, Sigma), or 3.5 μM of CDDP (sc-200896, Santa Cruz) for 3 days in absence or presence of PAN 811.Cl.H2O. For ROS examination, the neurons were insulted with both 100 μM of MTX and 25 μM of 5-FU by 15 d.i.v. PAN-811.Cl.H2O was added to cultures to final concentrations of 1.25, 2.5, 5, and 10 μM at the same time as addition of the anticancer drugs. For cancer cell lines, the cells were insulted by the second day of cell seeding with the same concentration of MTX, 5-FU, or CDDP as used in neuronal culture in the absence or presence of 10 μM PAN-811.Cl.H2O for another 3 days.
(§3) Quantitative Assays and Morphological Assessment. Cell membrane integrity and mitochondrial function of either neurons or cancer cells were measured with LDH and 3-(4,5-dimethylthiazol-2-yl)-5-(3-carboxymethoxyphenyl)-2-(4-sulfophenyl)-2H-tetrazolium [MTS] analyses, respectively. The latter has been used to quantify cell survival. For the LDH assay, a mixture of a 35 μL aliquot of culture supernatant and 17.5 μL of Mixed Substrate, Enzyme and Dye Solutions (Sigma) was incubated at room temperature (RT) for 30 minutes. For the MTS assay, 10 μL of MTS reagent (Promega) was added to a culture well containing neurons in 50 μL of medium. The preparations were incubated at 37° C. for 2 hours. The preparations for both assays were then spectrophotometrically measured at 490 nm using a 96-well plate reader (Mode 550, Bio-Rad). Neuronal cell death was morphologically determined based on the integrity of the cell soma and continuity of neuronal processes. The change in number of cancer cells was judged directly by cell density. Cells were photographed under an inverted phase contrast microscope (IX 70, Olympus) using 10× or 20× objective.

[2] = tested on: mixed cortical and striatal neurons; assay: LDH assay (cell membrane integrity) in neuronal cell culture; assay type: cell-based; settings: MTX 100 μM, 5-FU 25 μM, CDDP 3.5 μM; for LDH increase in culture supernatant (cell membrane leakage): neurons in 25% AO; for LDH increase in culture supernatant (cell membrane leakage) / morphological changes, LDH release, or MTS reduction: 3 days; for morphological changes, LDH release, or MTS reduction: neurons in 100% or 50% AOs, data not shown; for increase in LDH reading: neurons, FIG. 2(b)
Method: (§4) Neuronal Cell Culture. Mixed cortical and striatal neurons fromembryonic day 17 male Sprague-Dawley rats (tissue obtained from NIH) were seeded into poly-D-lysine coated 96-well plates at density of 50,000 cells/well and initially cultured at 37° C., 5% CO2, in neurobasal medium (NB) with B27 supplement (Invitrogen) containing full strength of AOs to obtain highly enriched (95%) neurons. Since AOs, including vitamin E, vitamin E acetate, superoxide dismutase (SOD), catalase (CAT), and GSH, are additives to culture medium, reduction of AO concentration in culture medium provides an approach to determine the level of OS involvement in a neurotoxic process. In our study, the culture medium was replaced at a 50% ratio with NB plus B27 minus AOs twice at days 7 and 9 to set AO concentrations as 50% and 25%, respectively. At 16 days in vitro (d.i.v.), a fraction of the culture medium was harvested for lactate dehydrogenase (LDH) assay, and then AO concentration was reduced to 12.5% and cultured for a further 5 hours prior to ending the experiment.
as §2, §3
(§5) Data Analysis. Data were generated from 4-6 replicate wells, expressed as mean±standard deviation (SD), and statistically evaluated at a significance level of 1% with one factor ANOVA or Student's t-test by using software VASSARSTATS (http://vassarstats.net/) followed by the Tukey HSD test. Figure symbols are as follows: #, P<0.05, and ##, P<0.01, compared with control; *, P<0.05, and **, P<0.01, compared with the insulted group; §§, P<0.01, compared with PAN-811 treated group by Student's t-test.

[3] = tested on: mouse liver cancer cell line BNLT3; assay: Cell density of BNLT3 cells (phase contrast); assay type: cell-based; settings: each agent alone, 3 days: MTX 100 μM, 5-FU 25 μM, CDDP 3.5 μM, PAN-811 10 μM
Method: as §1, §2, §3

[4] = tested on: human lung cancer cell line H460; assay: MTS assay in H460 cancer cells; assay type: cell-based; settings: each agent alone, 3 days: MTX 100 μM, 5-FU 25 μM, CDDP 3.5 μM, PAN-811 10 μM
Method: as §1, §2, §3, §5

[5] = tested on: mixed cortical and striatal neurons; assay: MTS assay (cell viability) in neuronal cell culture; assay type: cell-based; settings: MTX 100 μM, 5-FU 25 μM, CDDP 3.5 μM; for reduction of MTS reading / effect on MTS reading (in words): neurons in 12.5% AO; for effect on MTS reading (in words): FIG. 2(c); for change in MTS level: neurons in 25% AO, 3 days, data not shown
Method: as §4, §2, §3, §5

[6] = tested on: mouse liver cancer cell line BNLT3; assay: MTS assay in BNLT3 cancer cells; assay type: cell-based; settings: each agent alone, 3 days: MTX 100 μM, 5-FU 25 μM, CDDP 3.5 μM, PAN-811 10 μM
Method: as §1, §2, §3, §5

[7] = tested on: mixed cortical and striatal neurons; assay: Morphological assessment of neuronal cell death; assay type: cell-based, Sprague-Dawley rats; settings: MTX 100 μM, 5-FU 25 μM, CDDP 3.5 μM; for visible cell damage: neurons in 25% AO, 3 days; for neuronal cell death / loss of neurons (morphology): AO reduced to 12.5% for 5 hours at 16 d.i.v.
Method: as §4, §2, §3

[8] = tested on: human lung cancer cell line H460; assay: LDH assay (membrane integrity) in H460 cancer cells; assay type: cell-based; settings: each agent alone, 3 days: MTX 100 μM, 5-FU 25 μM, CDDP 3.5 μM, PAN-811 10 μM
Method: as §1
as §2, with “[…] […]” for “At 13 d.i.v., the neuronal cell cultures were insulted with 100 μM of MTX (M9929, Sigma), 25 μM of 5-FU (F6627, Sigma), or 3.5 μM of CDDP (sc-200896, Santa Cruz) for 3 days in absence or presence of PAN 811.Cl.H2O. For ROS examination, the neurons were insulted with both 100 μM of MTX and 25 μM of 5-FU by 15 d.i.v.”
as §3, §5

[9] = tested on: TRPA1-dependent hypersensitivity; settings: short-term systemic treatment before the cytotoxic drug (bortezomib or oxaliplatin); cited from earlier work
[10] = tested on: oxaliplatin-induced behavioral alterations; settings: in vivo; cited from earlier work

SMILES | cell density [1] | LDH increase in culture supernatant (cell membrane leakage) [2] | morphological changes, LDH release, or MTS reduction [2] | increase in LDH reading [2] | cell density / cancer cell number [3] | reduction of MTS reading [4] | reduction of MTS reading [5] | effect on MTS reading (in words) [5] | change in MTS level [5] | reduction of MTS reading [6] | visible cell damage [7] | neuronal cell death / loss of neurons (morphology) [7] | increase in LDH reading in culture supernatant [8] | prevention of hypersensitivity [9] | antineuropathic effect on oxaliplatin-induced behavioral alterations [10]
O=c1[nH]cc(F)c(=O)[nH]1 [5-FU, fluorouracil] | robustly decreased the cell density | significant LDH increase | neither MTX at 100 μM, 5-FU at 25 μM, nor CDDP at 3.5 μM caused morphological changes, LDH release, or MTS reduction | significant increases in LDH reading | significantly reduced the cell density | 57% | 27% | significant reduction in MTS readings | no change in MTS level was detectable | 84% | no cell damage was visible | extensive neuronal cell death; also recorded: robust loss of neurons | 124% |  | 
CC(C)c1ccc(NC(=O)Cn2cnc3c2c(=O)n(C)c(=O)n3C)cc1 [HC-030031] |  |  |  |  |  |  |  |  |  |  |  |  |  | completely prevent hypersensitivity | 
[NH2][Pt]([NH2])([Cl])[Cl] [CDDP, cisplatin] | greatly decreased the cell density | significant LDH increase | neither MTX at 100 μM, 5-FU at 25 μM, nor CDDP at 3.5 μM caused morphological changes, LDH release, or MTS reduction | significant increases in LDH reading | caused a decrease in the cell density | 22% | 66% | significant reduction in MTS readings | no change in MTS level was detectable | 44% | no cell damage was visible | extensive neuronal cell death; also recorded: robust loss of neurons | 71% |  | 
CN(Cc1cnc2nc(N)nc(N)c2n1)c1ccc(C(=O)N[C@@H](CCC(=O)O)C(=O)O)cc1 [MTX, methotrexate] | robustly decreased the cell density | significant LDH increase | neither MTX at 100 μM, 5-FU at 25 μM, nor CDDP at 3.5 μM caused morphological changes, LDH release, or MTS reduction | significant increases in LDH reading | severely reduced the cancer cell number | 67% |  | did not elicit significant MTS reduction; also recorded: did not significantly affect the MTS reading | no change in MTS level was detectable | 85% | no cell damage was visible | did not result in significant loss of cell number | 95% |  | 
O=C(O)CCCCC1CCSS1 (stereo not drawn) [α-lipoic acid] |  |  |  |  |  |  |  |  |  |  |  |  |  | completely prevent hypersensitivity | 
Cc1c(C)c2c(c(C)c1O)CC[C@@](C)(CCC[C@H](C)CCC[C@H](C)CCCC(C)C)O2 [α-tocopherol] |  |  |  |  |  |  |  |  |  |  |  |  |  |  | about 50%
